Tests used:
plasmablast/cells = test: Sustained decrease of plasmablast/cells under Cladribine treatment; type: in vivo, human; conditions: month 3-12
Source text: According to the instant invention, it is preferably shown that treatment of said autoimmune diseases with DMDs, preferably the treatment of MS with said DMDs and especially treatment of MS with Cladribine, in an individual induces a sustained decrease of pathological memory B cells and plasmablast/cells (>−70% and >−50% from baseline respectively) from month 1-12 and month 3-12 respectively. Repopulation of these cells resulting in a increase of numbers of memory B cells and Plasma cells to <−40% and −20% respectively will illustrate a loss of efficacy serving as a retreatment marker.

Memory B cells = test: MAGNIFY-MS peripheral blood immunophenotyping (flow cytometry); type: in vivo, human; conditions: month 1-12
[1] = test system: plasma cell numbers in the blood; test: Plasma cell response in MS patients vaccinated with Shingrix before cladribine treatment; type: in vivo, human; conditions: MS patients vaccinated twice with Shingrix, second dose 1 week before start of cladribine
Source text: According to the instant invention, it is preferably shown that treatment of treatment of MS with Cladribine, in an individual, reduces short lived plasmablasts and CD38^+ plasma cells and the direct effect on these plasma cell subpopulations is further supported by blood data from MS patients vaccinated twice with the Shingrix vaccine before the start of treatment with the DMD Cladribine. After the second Shingrix dose given 1 week before said start of cladribine treatment, the patient raised an acute plasma cell response, and increased plasma cell numbers in the blood to the MS patient were reduced by cladribine treatment (cite vaccination patent). These findings indicate that Cladribine is able to directly affect and reduce plasmablasts and CD38+ plasma cells which are associated with disease pathology by means of autoantibody production and direct cellular toxicity, especially when occurring within the cerebrospinal fluid. What we found in MS is also important for other diseases. There are a variety of AI & Neuroinflammatory diseases where potentially plasma cells/plasmablasts are involved in the disease activity and disease course which we deem to benefit from a treatment directly acting on plasma cells, preferably cladribine treatment. […]

plasma cells signatures = test: Immune deconvolution signatures, CLARITY phase 3, 96 weeks; type: in vivo, human; conditions: 96 weeks after first cladribine treatment
Source text: Plasma cell signatures have weak positive, but significant, correlation with: MACT2 (Mean Active T2 Lesions), CACT2 (Cumulative Active T2 lesions), MRCULES (Mean CU Lesions), MNT1GEL (Mean New T1 Gd+ Lesions). The results are illustrated in FIG. 9.

[2] = CLARITY extension, five patient groups, 3.5 mg/kg or placebo after CLARITY; cited from earlier work
CD19^+ cell = conditions: Montalban et al., 2016; cited from earlier work
CD4^+ T cell = conditions: followed by a period of repopulation (Wiendl et al., 2020); cited from earlier work
B cell = conditions: followed by a period of repopulation (Wiendl et al., 2020); cited from earlier work
CD8^+ T cell = conditions: followed by a period of repopulation (Wiendl et al., 2020); cited from earlier work
CD27+ memory B cells = conditions: those with NMOSDs; cited from earlier work
CD24hiCD38hi TrB cells = conditions: those with NMOSDs; cited from earlier work

## Nc1nc(Cl)nc2c1ncn2[C@H]1C[C@H](O)[C@@H](CO)O1 [Cladribine]
plasmablast/cells
  Sustained decrease of plasmablast/cells from baseline: > −50%
Memory B cells
  Sustained decrease of pathological memory B cells from baseline: > −70%
[1]
  Increased plasma cell numbers in the blood after second Shingrix dose: reduced
Plasma cells signatures
  Ratio in plasma cells signatures vs untreated control: decreased ratio
[2]
  Relapse rates and disability between all groups: not significantly different

## ocrelizumab: anti-CD20 therapy targeting B cells
CD19^+ cell
  Time of reductions in CD19^+ cell counts after treatment (as early as): 2 weeks

## Alemtuzumab: other disease-modifying therapy compared in the discussion
CD4^+ T cell
  CD4^+ T cell counts: decrease
B cell
  B cell counts: decrease
CD8^+ T cell
  CD8^+ T cell counts: decrease

## Rituximab: anti-CD20 therapy targeting B cells
CD27+ memory B cells
  number of CD27+ memory B cells: lowered
CD24hiCD38hi TrB cells
  number of CD24hiCD38hi TrB cells: increased
